Results as given in patent US11311542B2, “Inhibitors of cyclin dependent kinase 7 (CDK7)” (Syros Pharmaceuticals, Inc., priority 2018, dated 2022).

How the values were obtained:
[1] = molecular target: CDK7/Cyclin H/MAT1 complex (Homo sapiens, UniProt P50613); assay: CDK7 kinase inhibition assay (Caliper/LabChip EZ Reader)
CDK2/Cyclin E1 complex = CDK2/Cyclin E1 complex (Homo sapiens, UniProt P24941); assay: CDK2 kinase inhibition assay (Caliper/LabChip EZ Reader)
Protocol: (§2) Compounds described herein were assayed for inhibition of CDK7, CDK9, CDK12, and CDK2 activity at Biortus Biosciences (Jiangyin, Jiangsu Province, P.R. of China) using kinase assays for each CDK developed with a Caliper/LabChip EZ Reader (Perkin Elmer, Waltham, Mass.).
(§3) Furthermore, the CDK9 inhibition assay used CDK9/Cyclin T1 complex (8 nM) and “5-FAM-CDK9tide” peptide substrate (2 μM, synthesized fluorophore-labeled peptide with the following sequence: 5-FAM-GSRTPMY-NH2 (SEQ ID NO:2) where 5-FAM is defined above and NH2 signifies a C-terminal amide) with 10 mM MgCl2 in the buffer composition listed above. The CDK12 inhibition assay used CDK12 (aa686-1082)/Cyclin K complex (50 nM) and “5-FAM-CDK9tide” (2 μM) as defined above, with 2 mM MgCl2 in the buffer composition above. Additionally, the CDK2 inhibition assay used CDK2/Cyclin E1 complex (0.5 nM) and “5-FAM-CDK7tide” (2 μM; defined above) with 2 mM MgCl2 in the buffer composition above.
(§4) The incubation period at 27° C. for each CDK inhibition assay was chosen such that the fraction of phosphorylated peptide product produced in each assay, relative to the total peptide concentration, was approximately 20% (±5%) for the uninhibited kinase (35 min. for CDK7, 35 min. for CDK2, 3 hr. for CDK12, 15 min. for CDK9).

CDK9/Cyclin T1 complex = CDK9/Cyclin T1 complex (Homo sapiens, UniProt P50750); assay: CDK9 kinase inhibition assay (Caliper/LabChip EZ Reader)
Protocol: as §2, §3, §4

COV504 cells = assay: Inhibition of cell proliferation (CyQUANT Direct), COV504; assay type: cell-based, human; settings: Homo sapiens, COV504, 72-hour
Protocol: (§1) HCC70 and MB453 cells are cell lines derived from human triple negative breast cancer COV318 and COV504 cells are cell lines derived from human ovarian cancer. Representative compounds of the invention were tested at different concentrations (from 4 μM to 126.4 pM; 0.5 log serial dilutions) for their ability to inhibit the proliferation of each of these cell lines. Known CDK inhibitors dinaciclib or N-((1S,3R)-3-((5-chloro-4-(1H-indol-3-yl) pyrimidin-2-yl)amino)cyclohexyl)-5-((E)-4-(dimethylamino)but-2-enamido)picolinamide and triptolide were used as positive controls. Cells were seeded at approximately 2,000 cells/well and grown in ATCC-formulated RPMI-1640 Medium (ATCC 30-2001)+10% FBS. The cells were cultured at 37° C. in a humidified chamber in the presence of 5% CO2. Proliferation assays were conducted over a 72-hour time period. CyQUANT® Direct Cell Proliferation Assay (Life Technologies, Chicago, Ill. USA) was used to assess the anti-proliferative effects of the compounds following manufacturer's directions and utilizing the reagents supplied with the CyQUANT® Direct Cell kit.

COV318 cells = assay: Inhibition of cell proliferation (CyQUANT Direct), COV318; assay type: cell-based, human; settings: Homo sapiens, COV318, 72-hour
Protocol: as §1

HCC70 cells = assay: Inhibition of cell proliferation (CyQUANT Direct), HCC70; assay type: cell-based, human; settings: Homo sapiens, HCC70, 72-hour
Protocol: as §1

MB453 cells = assay: Inhibition of cell proliferation (CyQUANT Direct), MB453; assay type: cell-based, human; settings: Homo sapiens, MB453, 72-hour
Protocol: as §1

[2] = molecular target: CDK12 (aa686-1082)/Cyclin K complex (Homo sapiens, UniProt Q9NYV4); assay: CDK12 kinase inhibition assay (Caliper/LabChip EZ Reader)
CDK12 (aa686-1082)/Cyclin K complex, sequence (Q9NYV4 686-1082): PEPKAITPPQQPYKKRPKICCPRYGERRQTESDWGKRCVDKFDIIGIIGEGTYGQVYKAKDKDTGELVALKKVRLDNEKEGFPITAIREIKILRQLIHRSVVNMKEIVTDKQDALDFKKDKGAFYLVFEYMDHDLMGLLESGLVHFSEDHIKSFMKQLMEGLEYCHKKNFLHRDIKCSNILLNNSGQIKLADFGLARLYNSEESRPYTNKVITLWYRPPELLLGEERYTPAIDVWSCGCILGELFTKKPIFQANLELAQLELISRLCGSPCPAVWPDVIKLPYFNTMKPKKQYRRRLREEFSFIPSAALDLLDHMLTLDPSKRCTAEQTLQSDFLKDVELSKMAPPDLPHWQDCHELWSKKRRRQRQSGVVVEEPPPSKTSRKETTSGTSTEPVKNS
CDK12 (aa686-1082)/Cyclin K complex, sequence (O75909 whole entry partner, the tested form may be a part): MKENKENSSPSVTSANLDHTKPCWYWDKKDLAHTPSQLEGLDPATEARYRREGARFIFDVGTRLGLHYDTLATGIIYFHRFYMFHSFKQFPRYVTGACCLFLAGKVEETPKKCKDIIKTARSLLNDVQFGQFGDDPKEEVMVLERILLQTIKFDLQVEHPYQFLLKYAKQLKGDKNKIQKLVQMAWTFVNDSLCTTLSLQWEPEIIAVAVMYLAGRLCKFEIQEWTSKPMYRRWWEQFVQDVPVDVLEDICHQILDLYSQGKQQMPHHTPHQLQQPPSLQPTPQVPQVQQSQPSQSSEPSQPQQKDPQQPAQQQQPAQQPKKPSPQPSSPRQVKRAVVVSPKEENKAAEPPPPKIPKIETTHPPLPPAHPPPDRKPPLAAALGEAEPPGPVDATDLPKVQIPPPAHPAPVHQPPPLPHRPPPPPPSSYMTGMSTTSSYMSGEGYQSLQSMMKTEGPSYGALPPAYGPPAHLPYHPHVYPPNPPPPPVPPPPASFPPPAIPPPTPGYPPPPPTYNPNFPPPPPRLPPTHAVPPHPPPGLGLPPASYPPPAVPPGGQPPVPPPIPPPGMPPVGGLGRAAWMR
Protocol: as §2, §3, §4

CDK7/Cyclin H/MAT1 complex, sequence (P50613 whole entry): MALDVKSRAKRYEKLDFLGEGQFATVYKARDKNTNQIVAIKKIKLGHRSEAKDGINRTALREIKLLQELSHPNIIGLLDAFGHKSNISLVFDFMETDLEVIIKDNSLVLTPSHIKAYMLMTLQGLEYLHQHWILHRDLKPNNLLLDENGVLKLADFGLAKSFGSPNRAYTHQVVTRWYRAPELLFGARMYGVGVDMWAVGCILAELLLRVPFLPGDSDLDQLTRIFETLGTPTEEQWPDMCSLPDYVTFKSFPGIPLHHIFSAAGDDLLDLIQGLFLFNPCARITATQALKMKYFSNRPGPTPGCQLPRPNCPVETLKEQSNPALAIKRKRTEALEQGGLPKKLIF
CDK7/Cyclin H/MAT1 complex, sequence (P51946 whole entry partner): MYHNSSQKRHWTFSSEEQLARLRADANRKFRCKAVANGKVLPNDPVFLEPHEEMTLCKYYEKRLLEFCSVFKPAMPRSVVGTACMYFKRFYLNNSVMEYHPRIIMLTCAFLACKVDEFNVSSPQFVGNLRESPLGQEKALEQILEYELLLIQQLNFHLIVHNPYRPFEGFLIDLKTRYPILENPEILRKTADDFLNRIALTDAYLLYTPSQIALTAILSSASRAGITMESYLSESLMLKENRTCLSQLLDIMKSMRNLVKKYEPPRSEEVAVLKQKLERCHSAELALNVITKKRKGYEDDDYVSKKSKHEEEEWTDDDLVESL
CDK7/Cyclin H/MAT1 complex, sequence (P51948 whole entry partner): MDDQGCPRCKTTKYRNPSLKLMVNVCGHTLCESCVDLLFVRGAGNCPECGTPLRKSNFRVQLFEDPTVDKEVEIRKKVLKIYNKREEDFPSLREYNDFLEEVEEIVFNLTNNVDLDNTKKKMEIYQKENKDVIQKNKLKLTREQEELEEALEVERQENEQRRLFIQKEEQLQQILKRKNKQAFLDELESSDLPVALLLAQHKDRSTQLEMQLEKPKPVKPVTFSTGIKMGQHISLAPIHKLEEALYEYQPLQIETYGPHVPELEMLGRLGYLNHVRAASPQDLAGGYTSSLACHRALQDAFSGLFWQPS
CDK9/Cyclin T1 complex, sequence (P50750 whole entry): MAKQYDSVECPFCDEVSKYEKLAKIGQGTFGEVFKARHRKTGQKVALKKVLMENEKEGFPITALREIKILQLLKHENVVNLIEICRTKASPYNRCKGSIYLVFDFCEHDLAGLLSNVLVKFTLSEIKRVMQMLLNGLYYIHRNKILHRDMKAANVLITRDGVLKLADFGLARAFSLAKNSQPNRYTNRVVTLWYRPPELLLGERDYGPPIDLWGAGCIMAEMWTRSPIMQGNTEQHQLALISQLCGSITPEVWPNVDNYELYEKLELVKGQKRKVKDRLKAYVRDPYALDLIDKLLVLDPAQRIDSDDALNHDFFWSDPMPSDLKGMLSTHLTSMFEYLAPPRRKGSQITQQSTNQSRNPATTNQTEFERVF
CDK9/Cyclin T1 complex, sequence (O60563 whole entry partner): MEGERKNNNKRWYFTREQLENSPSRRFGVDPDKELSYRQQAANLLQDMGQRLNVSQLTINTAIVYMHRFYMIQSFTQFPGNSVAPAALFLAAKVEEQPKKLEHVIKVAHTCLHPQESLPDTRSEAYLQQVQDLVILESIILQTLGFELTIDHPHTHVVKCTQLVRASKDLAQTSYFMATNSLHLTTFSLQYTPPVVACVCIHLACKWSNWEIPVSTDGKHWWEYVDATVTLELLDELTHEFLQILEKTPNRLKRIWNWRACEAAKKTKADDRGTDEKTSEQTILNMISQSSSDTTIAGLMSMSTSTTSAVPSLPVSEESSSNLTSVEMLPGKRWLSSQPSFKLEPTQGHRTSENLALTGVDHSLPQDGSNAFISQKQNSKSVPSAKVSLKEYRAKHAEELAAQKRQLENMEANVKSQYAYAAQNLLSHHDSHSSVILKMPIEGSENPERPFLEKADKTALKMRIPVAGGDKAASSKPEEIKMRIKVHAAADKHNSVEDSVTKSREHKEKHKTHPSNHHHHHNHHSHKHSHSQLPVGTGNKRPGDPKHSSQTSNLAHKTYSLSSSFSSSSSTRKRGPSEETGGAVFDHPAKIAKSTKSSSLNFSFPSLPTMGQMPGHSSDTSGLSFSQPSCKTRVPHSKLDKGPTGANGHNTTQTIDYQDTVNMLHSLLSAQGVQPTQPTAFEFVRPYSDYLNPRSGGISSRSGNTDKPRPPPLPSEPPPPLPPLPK

Structure (SMILES) | IC50 [1] [nM] | IC50 (CDK2/Cyclin E1 complex) [nM] | IC50 (CDK9/Cyclin T1 complex) [nM] | IC50 (COV504 cells) [nM] | IC50 (COV318 cells) [nM] | IC50 (HCC70 cells) [nM] | IC50 (MB453 cells) [nM] | IC50 [2] [nM]
Cc1nocc1-c1ccc2c(-c3nc(N[C@@H]4CNC[C@H](O)C4)ncc3C(F)(F)F)c[nH]c2n1 [Compound 148, (3R,5S)-5-[[4-[6-(3-methylisoxazol-4-yl)-1H-pyrrolo[2,3-b]pyridin-3-yl]-5-(trifluoromethyl)pyrimidin-2-yl]amino]piperidin-3-ol] | < 30 | > 500 | > 500 | 500 to 1000 | > 1000 | > 1000 | 100 to 500 | > 500
Cc1noc(C)c1-c1ccc2c(-c3nc(N[C@@H]4CNC[C@H](C(=O)N(C)C)C4)ncc3C(F)(F)F)c[nH]c2c1 [Compound 112, (3R,5S)-5-[[4-[6-(3,5-dimethylisoxazol-4-yl)-1H-indol-3-yl]-5-(trifluoromethyl)pyrimidin-2-yl]-amino]-N, N-dimethyl-piperidine-3-carboxamide] | < 30 | > 500 | > 500 | 100 to 500 | > 1000 | 100 to 500 | 100 to 500 | > 500
C[C@H]1CC[C@H](Nc2ncc(C(F)(F)F)c(-c3c[nH]c4nc(-c5cnnn5C)ccc34)n2)CN1 [Compound 150, N-[(3S,6S)-6-methyl-3-piperidyl]-4-[6-(3-methyltriazol-4-yl)-1H-pyrrolo[2,3-b]pyridin-3-yl]-5-(trifluoromethyl)pyrimidin-2-amine] | < 30 | > 500 | > 500 | < 100 | 100 to 500 | 100 to 500 | < 100 | > 500
Cc1nocc1-c1ccc2c(-c3nc(N[C@H]4CCC(C)(C)NC4)ncc3C(F)(F)F)n[nH]c2n1 [Compound 160, (S)—N-(6,6-dimethylpiperidin-3-yl)-4-(6-(3-methylisoxazol-4-yl)-1H-pyrazolo[3,4-b]pyridin-3-yl)-5-(trifluoromethyl)pyrimidin-2-amine] | < 30 | > 500 | > 500 | 100 to 500 | > 1000 | > 1000 | 100 to 500 | > 500
FC(F)(F)c1cnc(N[C@H]2CCCNC2)nc1-c1c[nH]c2cc(-c3cnco3)ccc12 [Compound 111, (S)-4-(6-(oxazol-5-yl)-1H-indol-3-yl)-N-(piperidin-3-yl)-5-(trifluoromethyl)pyrimidin-2-amine] | < 30 | > 500 | > 500 | < 100 | 100 to 500 | 100 to 500 | 100 to 500 | > 500
Cc1nc(-c2ccc3c(-c4nc(N[C@@H]5CC[C@@H](C)NC5)ncc4C(F)(F)F)c[nH]c3n2)no1 [Compound 163, 4-[6-(5-methyl-1,2,4-oxadiazol-3-yl)-1H-pyrrolo[2,3-b]pyridin-3-yl]-N-[(3R, 6R)-6-methyl-3-piperidyl]-5-(trifluoromethyl)pyrimidin-2-amine] | < 30 | > 500 | > 500 | < 100 | > 1000 | < 100 | < 100 | > 500
Cc1noc(C)c1-c1ccc2c(-c3nc(N[C@@H]4CNCC(C)(C)C4)ncc3C(F)(F)F)c[nH]c2n1 [Compound 115] | < 30 | 100 to 500 | > 500 | < 100 | < 100 | < 100 | < 100 | 100 to 500
Cc1nocc1-c1ccc2c(-c3nc(N[C@H]4CCCNC4)ncc3C(F)(F)F)c[nH]c2n1 [Compound 132] | < 30 | > 500 | > 500 | < 100 | < 100 | < 100 | < 100 | > 500
Cc1nscc1-c1ccc2c(-c3nc(N[C@H]4CCCNC4)ncc3C(F)(F)F)c[nH]c2n1 [Compound 149] | < 30 | > 500 | > 500 | < 100 | < 100 | < 100 | < 100 | > 500
